From patent publication US3932512A, “Antiviral 1,2,3,4-tetrahydro-1,-alkano naphthalenamine derivatives” (priority 1972, dated 1976)
Where two headings read alike, the source gives them in different places.

Legend:
[1] = test system: Influenza A2 /Aichi/3/68; test: in vitro anti-myxovirus activity, influenza A2 /Aichi/3/68, G-2 cells (% inhibition of hemadsorption); assay type: cell-based, Influenza A2 /Aichi/3/68 (human); conditions: for inhibition at 100 µg/mL: 100 μg/ml; for inhibition at 40 µg/mL: 40 μg/ml; for inhibition at 30 µg/mL: 30 μg/ml; for inhibition at 50 µg/mL: 50 μg/ml; for inhibition at 60 µg/mL: 60 μg/ml; for inhibition at 70 µg/mL: 70 μg/ml; for inhibition at 80 µg/mL: 80 μg/ml; for inhibition at 90 µg/mL: 90 μg/ml; for inhibition at 10 µg/mL: 10 μg/ml; for inhibition at 20 µg/mL: 20 μg/ml
[2] = cytotoxicity in G-2 cells; assay type: cell-based; conditions: human; for CC50: 50% inhibition of cell growth, read-out: Cytotoxicity CTD50; for MNTC: maximal non-toxic concentration, read-out: Cytotoxicity CTD0
Description: In preparing the compounds for testing, they were handled aseptically throughout. The compounds were dissolved in a minimum amount of a suitable solvent and the final dilutions were made up to the required volume in a complete culture medium used in assay and in concentration not exceeding the predetermined maximum non-toxic levels.
The cell culture used in all primary in vitro anti-myxovirus assays was an established cell line of the human conjunctiva (G-2 cells). The cytotoxic studies of each of the compounds were performed prior to testing for antiviral activity to determine level of response of the cells to the potentially toxic action of the compounds.

[3] = toxicity of in vitro active anti-myxovirus compounds in mice; conditions: mouse, in vivo, ip, I/P
[4] = test system: mice; test: as above; conditions: for Maximal non-toxic dose LD0, acute / Maximal non-toxic dose LD0, subacute: I/P; for toxicity compared with Amantadine or compound I: words
[5] = test system: Influenza (swine); test: cells; assay type: cell-based; conditions: for inhibition at 30 µg/mL: 30 μg/ml; for inhibition at 80 µg/mL: 80 μg/ml; for inhibition at 100 µg/mL: 100 μg/ml
[6] = Homo sapiens, 100 TCID50, read-out: % Inhibition
[7] = 50% toxic dose LD50, acute, acute
[8] = 50% toxic dose LD50, subacute, subacute

Row | SMILES | inhibition at 100 µg/mL [1, 6] | CC50 [2] | MNTC [2] | LD50 [3, 7] | LD50 [3, 8] | Maximal non-toxic dose LD0, acute [4] | Maximal non-toxic dose LD0, subacute [4] | toxicity compared with Amantadine or compound I [4] | inhibition at 40 µg/mL ([1]; 100 TCID50) | inhibition at 30 µg/mL ([1]; Homo sapiens, 100 TCID50) | inhibition at 50 µg/mL ([1]; Homo sapiens, 100 TCID50) | inhibition at 60 µg/mL ([1]; Homo sapiens, 100 TCID50) | inhibition at 70 µg/mL ([1]; Homo sapiens, 100 TCID50) | inhibition at 80 µg/mL ([1]; Homo sapiens, 100 TCID50) | inhibition at 90 µg/mL ([1]; Homo sapiens, 100 TCID50) | inhibition at 30 µg/mL [5] | inhibition at 40 µg/mL ([5]; 40 μg/ml) | inhibition at 50 µg/mL ([5]; 50 μg/ml) | inhibition at 60 µg/mL ([5]; 60 μg/ml) | inhibition at 80 µg/mL [5] | further results
1 | CN(C)C[C@H]1[C@H](N)[C@H]2C[C@@H]1c1ccccc12 (relative stereo) [Compound III, 1,2,3,4-tetrahydro-1,4-methanonaphthalen-exo-3-dimethylaminomethyl-endo-2-amine] | 90% | > 100 µg/mL | > 100 µg/mL | 750 mg/kg | 500 to 750 mg/kg | 500 mg/kg | 250 mg/kg | far less toxic than either the known antiviral agent Amantadine or compound I | – | – | – | – | – | – | – | – | – | – | – | – | inhibition at 33.3 µg/mL ([1]; Homo sapiens, 33.3 μg/ml, 100 TCID50): 3%; inhibition at 66.7 µg/mL ([1]; Homo sapiens, 66.7 μg/ml, 100 TCID50): 87%
2 | NC12CC3CC(CC(C3)C1)C2 [Amantadine, reference compound] | – | > 100 µg/mL | > 100 µg/mL | – | – | 175 mg/kg | 150 mg/kg | – | 0% | 0% | 0% | 0% | 33% | 27% | 67% | 0% | 10% | 67% | 83% | 100% | inhibition at 40 µg/mL ([1]; 56.2 TCID50): 0%; inhibition at 30 µg/mL ([1]; Homo sapiens, 56.2 TCID50): 0%; inhibition at 50 µg/mL ([1]; Homo sapiens, 56.2 TCID50): 0%; inhibition at 60 µg/mL ([1]; Homo sapiens, 56.2 TCID50): 53%; inhibition at 70 µg/mL ([1]; Homo sapiens, 56.2 TCID50): 83%; inhibition at 80 µg/mL ([1]; Homo sapiens, 56.2 TCID50): 70%; inhibition at 90 µg/mL ([1]; Homo sapiens, 56.2 TCID50): 97%; inhibition at 100 µg/mL ([1]; Homo sapiens, 56.2 TCID50): 87%; inhibition at 100 µg/mL ([1]; Homo sapiens, 100 TCID50): 43%; % Inhibition ([5]; 40 μg/ml, listed as AMANTADINE HYDROCHLORIDE): 17%; % Inhibition ([5]; 50 μg/ml, listed as AMANTADINE HYDROCHLORIDE): 80%; % Inhibition ([5]; 60 μg/ml, listed as AMANTADINE HYDROCHLORIDE): 90%; inhibition at 70 µg/mL ([5]; 70 μg/ml): 97%; % Inhibition ([5]; 70 μg/ml, listed as AMANTADINE HYDROCHLORIDE): 93%; inhibition at 90 µg/mL ([5]; 90 μg/ml): 100%; inhibition at 100 µg/mL [5]: 100%
3 | NC1C2CCC(c3ccccc32)C1N (stereo not drawn) [Compound VII, 1,2,3,4-tetrahydro-1,4-ethanonaphthalen-exo-3-endo-2-diamine] | 83% | > 100 µg/mL | > 100 µg/mL | 775 to 800 mg/kg | 800 mg/kg | 700 mg/kg | 700 mg/kg | far less toxic than either the known antiviral agent Amantadine or compound I | 30% | 20% | 67% | 80% | 57% | 60% | 80% | 90% | 97% | 100% | 100% | 100% | inhibition at 40 µg/mL ([1]; 31.6 TCID50): 87%; inhibition at 10 µg/mL ([1]; Homo sapiens, 31.6 TCID50): 0%; inhibition at 10 µg/mL ([1]; Homo sapiens, 100 TCID50): 0%; inhibition at 20 µg/mL ([1]; Homo sapiens, 31.6 TCID50): 7%; inhibition at 20 µg/mL ([1]; Homo sapiens, 100 TCID50): 0%; inhibition at 30 µg/mL ([1]; Homo sapiens, 31.6 TCID50): 60%; inhibition at 50 µg/mL ([1]; Homo sapiens, 31.6 TCID50): 95%; inhibition at 60 µg/mL ([1]; Homo sapiens, 31.6 TCID50): 100%; inhibition at 70 µg/mL ([1]; Homo sapiens, 31.6 TCID50): 100%; inhibition at 80 µg/mL ([1]; Homo sapiens, 31.6 TCID50): 100%; inhibition at 90 µg/mL ([1]; Homo sapiens, 31.6 TCID50): 100%; inhibition at 100 µg/mL ([1]; Homo sapiens, 31.6 TCID50, read-out: % Inhibition): 100%; inhibition at 10 µg/mL ([5]; 10 μg/ml): 0%; inhibition at 20 µg/mL ([5]; 20 μg/ml): 56%; % Inhibition ([5]; 20 μg/ml, listed as 1,2,3,4-TETRAHYDRO-1,4-[…]-EXO-3-ENDO-2-DIAMINE.2HCl): 70%; inhibition at 100 µg/mL [5]: 100%
